The results in this text go back to US5169863A, “Hypersphyxia-causing methods” (K.K. Ueno Seiyaku Oyo Kenkyujo, priority 1988, dated 1992).

Where two headings read alike, the source gives them in different places.

Series [1] in a line: changing rate of blood pressure and heart rate by intravenous injection in anesthetized rats. The settings on record: Rattus norvegicus, 1 (mg/kg). Format: in vivo, Wister male rats. As to the method: (blood pressure, heart rate increasing action by intravenous injection) Wister male rats (8 weeks old) were used as test animals. The rats were applied to anesthesia by intraperitoneal administration with 1.25 g/kg of urethane. The blood pressure was determined by inserting a polyethylene tube into a femoral artery, which was connected with a pressure transducer. The heart rate was determined from R wave of electrocardiograms (ECG) induced by standard limb lead II with a tachometer. Each test compound was dissolved in ethanol and intravenously administered to rats in 1 mg/kg diluted with Ringer's solution just before use. The maximum concentration of ethanol was 2 percent. An ethanol-containing Ringer without any test compound was used as a control to confirm the influence of the ethanol in each experiment. Each changing rate (%) in the blood pressure and heart rate before and after administration was determined, and the average of 3-4 experiments was shown in Table 1. Changing rates of blood pressure and heart rate were determined in the same manner as described in Example 1 except that the test compounds 60, 61 and 62 were used in different concentrations instead of the test compounds 1-55.

A short description of series [2]: progressing a breath (change rate of breath rate). Format: in vivo, Wister male rats. As to conditions: Rattus norvegicus, iv, tail vein, rats. Here is the method:
Wister male rats (8 weeks old) were applied to anesthesia by intraperitoneal administration with 1.25 g/kg of urethane. A pick-up for breath was fixed on a top of a rat's nose, and the breath curve was recorded on a polygraph while the breath rate was counted with a tachometer.
Each test compound was dissolved in ethanol and administered to rats through a tale vein in 1 mg/kg as diluted with Ringer's solution just before use. The maximum concentration of ethanol was 2 percent. Ringers solution containing ethanol but not containing test compound was administered at every experiment as a control. The change rates (%) of the breath rate before and after administration were determined, and evaluated as progressing activity of breath.

Series [3] in a line: acute toxicity LD50. Format: in vivo.
Series [4] can be described thus: recovery of blood pressure and heart rate of rats in hemorrhage shock. Format: in vivo, Wister male rats. The settings on record: intravenous, dehematized rats. As to the method:
(Recovery of blood pressure and heart rate of rats in hemorrhage shock)
Wister male rats (8 weeks old) were applied to anesthesia by subcutaneous injection with 1.5 g/kg of urethane. The blood pressure and heart rate were determined according to the same manner as in Example 1.
The rats were kept for 60 minutes in a room after a blood corresponding to 1.5% of the weight was removed.
13,14-dihydro-6,15-diketo-19-methyl-PGE1 ethyl ester (compound number 15) was dissolved in Ringer's solution (0.1 ml), and the solution was intravenously administered into the above dehematized rat. Ringer's solution was administered to a control group.
The recovery rates of the blood pressure and heart rate were obtained assuming the value at 60 minutes after dehematizing being 0% and the value before dehematizing being 100% respectively. In these FIGS. (1), (2) and (3) represent a dose of 1 mg/kg, dose of 0.5 mg/kg and control respectively.
The same procedure as the above except that the compounds of (7), (18) and (22) were used instead of the compound (15) was applied, and the effects are observed, the results of which are also shown in Table 3.

A short description of series [5]: changes in blood flow rate in carotid, blood pressure and heart rate. Format: in vivo, Wister male rats. As to conditions: 1 mg/kg, femoral artery, 4 experiments. As to the method:
Wister male rats (9 weeks old) were used.
The rats were applied to anesthesia by intraperitoneal administration with 1.25 g/kg of urethane. The blood flow rate in carotid was determined by a stromuhr. The blood pressure and heart rate were determined according to the same manner as in Example 1.
13,14-dihydro-6,15-diketo-19-methyl-PGE1 ethyl ester (sample number: 15) was dissolved in a small amount of ethanol, and then diluted with Ringer's solution more than 50 times. About 0.1 ml (1 mg drag/kg rat) of the diluted solution was administered to a rat through a polyethylene tube inserted into a femoral artery. The changes in blood flow rate (BF), blood pressure (BP), heart rate (HR) were observed, and the average of 4 experiments were shown in FIG. 1.

The mark [6] stands for this setting: Table 1, read-out: changing rate of blood pressure.
The mark [7] stands for this setting: Table 1, read-out: changing rate of heart rate.
[8] abbreviates: mouse, in vivo, IP, male mice, read-out: LD50.
The mark [9] stands for this setting: mouse, in vivo, IV, male mice, read-out: LD50.
[10] abbreviates: mouse, in vivo, PO, male mice, read-out: LD50.

On to `CCCCCC(=O)CC[C@H]1[C@H](O)CC(=O)[C@@H]1CCCCCCC(=O)OCC` [Compound 2, 13,14-dihydro-15-keto-PGE1 ethyl ester], for which the change in vivo at 1 mg/kg in series [1] (setting [6]) came to 1%; in series [1] (setting [7]) it was 20%; in series [2], 47%. In addition, the 50% lethal dose (LD50) in series [3] (setting [8]) is > 1000 mg/kg.
As to `CCCCCC(=O)CC[C@H]1[C@H](O)CC(=O)[C@@H]1CC(=O)CCCCC(=O)OCC` [Compound 7, 13,14-dihydro-6,15-diketo-PGE1 ethyl ester], the change in vivo at 1 mg/kg was 5% in series [1] (setting [6]) and 31% in series [2]. For the same compound, the “recovering of blood pressure %” value in series [4] (0.5 mg/kg) was found to be 38%; in series [4] (1.0 mg/kg) it was 63%. For the same compound, the “recovering of heart rate %” value is 46% in series [4] (0.5 mg/kg) and 62% in series [4] (1.0 mg/kg).
For `CCOC(=O)CCCCC(=O)C[C@H]1C(=O)C[C@@H](O)[C@@H]1CCC(=O)CCCC(C)C` [Compound 15, 13,14-dihydro-6,15-diketo-19-methyl-PGE1 ethyl ester], the change in vivo at 1 mg/kg in series [1] (setting [6]) is 12%; in series [1] (setting [7]), 19%; in series [2] it was 26%. Besides, in series [5] (FIG. 1a), the “change in blood flow rate (BF) in carotid” value is “extremely increase”. For the same compound, the “change in blood pressure (BP)” value in series [5] (FIG. 1b) is listed as “extremely increase”. In addition, the “change in heart rate (HR)” value in series [5] (FIG. 1c) is given as “extremely increase”. Further, the “recovering of blood pressure %” value in series [4] (0.5 mg/kg) is listed as 39%; in series [4] (1.0 mg/kg), 68%. In addition, the “recovering of heart rate %” value in series [4] (0.5 mg/kg) was 62%; in series [4] (1.0 mg/kg), 100%. Besides, the LD50 in series [3] (setting [9]) is > 300 mg/kg.
As for `CCCCCC(=O)CC[C@H]1[C@H](C)CC(=O)[C@@H]1CC(=O)CCCCC(=O)OCC` [Compound 18, 13,14-dihydro-6,15-diketo-11-dehydroxy-11R-methyl-PGE1 ethyl ester], the change in vivo at 1 mg/kg in series [1] (setting [6]) came to 18%; in series [1] (setting [7]), 17%; in series [2], 28%. The “recovering of blood pressure %” value was found to be 87% in series [4] (0.5 mg/kg) and 119% in series [4] (1.0 mg/kg). Besides, the “recovering of heart rate %” value in series [4] (0.5 mg/kg) and in series [4] (1.0 mg/kg) was 100% throughout.
As for `CCCCCC(=O)CC[C@H]1[C@H](O)CC(=O)[C@@H]1C/C=C\CCCC(=O)OC` [Compound 21, 13,14-dihydro-15-keto-PGE2 methyl ester], the change in vivo at 1 mg/kg in series [1] (setting [6]) is 18%; in series [1] (setting [7]), 35%; in series [2] it was 29%. Besides, the LD50 in series [3] (setting [9]) was > 1000 mg/kg.
Consider `CCCCCC(=O)CC[C@H]1[C@H](O)CC(=O)[C@@H]1C/C=C\CCCC(=O)OCC` [Compound 22, 13,14-dihydro-15-keto-PGE2 ethyl ester], for which the values for the change in vivo at 1 mg/kg in series [1] (setting [6]), in series [1] (setting [7]) and in series [2] were 5%, 11% and 28%, respectively. Besides, the “recovering of blood pressure %” value came out at 32% in series [4] (0.5 mg/kg) and 74% in series [4] (1.0 mg/kg). Also, the “recovering of heart rate %” value in series [4] (0.5 mg/kg) is 50%; in series [4] (1.0 mg/kg), 63%. Moreover, the LD50 was > 500 mg/kg in series [3] (IP, female mice); > 4000 mg/kg in series [3] (PO, female mice); > 1000 mg/kg in series [3] (SC, female mice); > 500 mg/kg in series [3] (setting [8]); > 4000 mg/kg in series [3] (setting [10]); > 1000 mg/kg in series [3] (mouse, in vivo, SC, male mice, read-out: LD50).
`CCCCC(F)C(=O)CC[C@H]1[C@H](O)CC(=O)[C@@H]1C/C=C\CCCC(=O)O` (stereo partly drawn) [Compound 36, 13,14-dihydro-15-keto-16R,S-fluoro-PGE2]: the results for the change in vivo at 1 mg/kg in series [1] (setting [6]) and in series [1] (setting [7]) were 33% and 32%, respectively. The 50% lethal dose (LD50) in series [3] (setting [10]) is > 500 mg/kg.
As to `CCCCC(F)C(=O)CC[C@H]1[C@H](O)CC(=O)[C@@H]1C/C=C\CCCC(=O)OC` (stereo partly drawn) [Compound 37, 13,14-dihydro-15-keto-16R,S-fluoro-PGE2 methyl ester], the change in vivo at 1 mg/kg in series [1] (setting [6]) stood at 56%; in series [1] (setting [7]) it was 33%. Also, the LD50 in series [3] (setting [10]) is > 500 mg/kg.
